Reference: patent US12377069B2, “Compounds, compositions, methods of using, and methods for preparing compounds” (UNIVERSITY OF LOUISVILLE RESEARCH FOUNDATION, INC., priority 2018, dated 2025)

What was measured:
[1] = Stability at gastric pH and with digestive enzymes; assay type: in vitro ADME; details: pH 2.0; enzymes 100 U/ml, 12 h, 37° C.; 0.2 mg/ml
Procedure: FIG. 1: UAS03 is a potent anti-inflammatory structural analogue of UroA and induces tight junction proteins. (A) Chemical structures of UroA, UAS03. UroA/UAS03 stability was examined in the presence of gastric pH 2.0 and digestive enzymes. UroA and UAS03 (0.2 mg/ml) were incubated with digestive enzymes (esterases and proteases, 100 U/ml) for 12 h at 37° C. and compound levels were quantified. (B) BMDMs were stimulated with LPS (50 ng/ml) without or with UroA (blue line)/UAS03 (purple line) (0.1, 1, 10, 25 and 50 μM) for 6 hours. IL-6 and TNF-α levels in supernatants were measured. (C) C57BL/6 mice (n=3-4) were pretreated with UroA (20 mg/kg) and UAS03 (20 mg/kg). After 4 hours, LPS (2 mg/kg) was injected intraperitoneally. Post 4 h of LPS administration, serum levels of IL-6 and TNF-α was measured. […] (G) The fold changes in mRNA levels of claudin 4 (Cldn4), occludin (Ocln) and Zona occludens 1 (ZO1) in HT29 cells were determined by RT PCR method. (H) UroA/UAS03 induced protein expression of Cldn4, Ocln and ZO1 in HT29 cells were determined by immunoblots and quantified by Image J software. […] The green intensity (n=15-20 cell membrane regions) was measured. […] The protein lysates were prepared from colon scrapes and subjected to immunoblots and detected the expression of the (J) Nrf2, HO1, Cldn4 and (K) AhR using appropriate antibodies as described in methods. […]

colon cancer cells = experiment: Clonogenic and wound healing assays; assay type: cell-based
human primary monocytes = experiment: LPS and EtOH induced TNF-α in human primary monocytes; assay type: cell-based; details: EtOH 25 mM 7 days; LPS 50 ng/ml
Procedure: FIG. 11: UroA reduces the LPS and EtOH induced TNF-α in human primary monocytes. (A) Human primary monocytes treated with UroA and LPS (50 ng/ml) for 6 h. The TNF-α in supernatant was measured. (B) Human primary monocytes were exposed to EtOH (25 mM) for 7 days. LPS (50 ng/ml) and UroA were added at day 6 and incubated for 24 h. The TNF-α levels in supernatant were measured using standard ELISA methods. Statistics performed using unpaired t-test using Graphpad Prism software. Error bars, ±SEM; ***p<0.001; **p<0.01
UroA reduces the LPS and EtOH induced TNF-α in human primary monocytes. Peripheral blood monocytes from chronic alcoholism patients produce increased spontaneous inflammatory mediators such as TNF-α, IL-6, IL-10 and IL-12. To mimic this condition, healthy peripheral blood monocytes were exposed for one week and tested whether UroA/UAS03 reduce the LPS-induced TNF-α.

C57BL/6 mice = experiment: Acute (binge) alcohol ALD model; assay type: in vivo, mouse
Procedure: FIG. 15: UroA treatment reduces binge EtOH-induced ALD. (A) Acute alcohol model: Female wild type (C547BL/6) mice (n=6/group) were oral gavaged with alcohol (5 g/kg) at 0, 12 and 24 h. Mice were treated with Veh (0.25% CMC) or UroA (20 mg/kg) at 2, 14 and 26 h. Mice were euthanized at 32 h. (B) In vivo permeability was measured by determining serum levels of FITC-Dextran post 4 h oral gavage of FITC-dextran (C) Fecal albumin was measured using standard ELISA. (D-I) Indicated serum cytokines/markers levels were measured in serum using standard ELISA. (J) The levels of triglycerides (TGs) in liver were measured using ELISA methods. Error bars, ±SEM. Statistics were performed using 2 way ANOVA multiple comparisons. * p<0.05, ** p<0.01, *** p<0.001.
Treatment with UroA mitigates acute and chronic alcohol liver disease. To examine therapeutic efficacies of UroA in ALD, we adopted acute mouse model as developed by Gao B group (NIAAA) (BERTOLA et al., (2013) “Mouse model of chronic and binge ethanol feeding (the NIAAA model)” Nat Protoc. Vol. 8, No. 3, pp. 627-637). We tested therapeutic efficacies of UroA in this model.

| Compound | stability at gastric pH and in the presence of gastric enzymes (esterases and proteases) [1] | colon cancer cell colony formation (clonogenic assay) (colon cancer cells) | cell growth and migration into scratch (wound healing assay) (colon cancer cells; in combination with 5FU) | LPS-induced TNF-α in chronically EtOH exposed human monocytes (human primary monocytes) | TJ protein (ZO-1) disruption at intestines (C57BL/6 mice; 20 mg/kg) | TG accumulation in liver (C57BL/6 mice; 20 mg/kg at 2, 14 and 26 h) | circulating serum ALT, AST levels (C57BL/6 mice; 20 mg/kg at 2, 14 and 26 h) | systemic inflammation (serum IL-6, TNF-α, IL-1β, endotoxins) (C57BL/6 mice; 20 mg/kg at 2, 14 and 26 h) |
| --- | --- | --- | --- | --- | --- | --- | --- | --- |
| Oc1ccc2c(c1)COc1cc(O)ccc1-2 [UAS03, 6H-benzo[c]chromene-3,8-diol] | stable | – | – | – | – | – | – | – |
| O=c1oc2cc(O)ccc2c2ccc(O)cc12 [UroA, 3,8-dihydroxy-6H-dibenzo[b,d]pyran-6-one] | – | reduced | inhibited cell growth and migration | reduced | protects against TJ protein (ZO-1) disruption | reduced TG accumulation in liver | reduced | reduced |
